# Experimental data as given in patent publication US20100267561A1, “HERBICIDAL PYRIDAZINONE DERIVATIVES” (priority 2007, published 2010).
# How the values were obtained:
# Type in all cases: in vivo
# [1] = tested on: Russian thistle (Salsola iberica); test: Test B pre-/postemergence plant response; settings: Preemergence; for Russian Thistle plant response rating: 8 g ai/ha
# Method in brief: (§1)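 Visual scoring from 0 (no effect) to 100 (complete control) against untreated controls was done 13 to 15 days after greenhouse treatment. Chemicals were formulated in a surfactant-containing non-phytotoxic solvent and applied to soil preemergence or to 1- to 4-leaf (2-18 cm) plants postemergence.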
# [2] = tested on: cocklebur (Xanthium strumarium); test: Test B pre-/postemergence plant response; settings: for Cocklebur plant response rating: 8 g ai/ha
# Method in brief: as §1
# [3] = tested on: large crabgrass (Digitaria sanguinalis); test: Test B pre-/postemergence plant response; settings: for Crabgrass, Large plant response rating: 8 g ai/ha
# Method in brief: as §1
# [4] = tested on: Italian ryegrass (Lolium multiflorum); test: Test C pre-/postemergence plant response
# Method in brief: (§2)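 Pre- and postemergence treatment, visual 0–100 rating vs controls at 15–25 days.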
# [5] = tested on: blackgrass (Alopecurus myosuroides); test: Test C pre-/postemergence plant response
# Method in brief: as §2
# [6] = tested on: downy bromegrass (Bromus tectorum); test: Test C pre-/postemergence plant response
# Method in brief: as §2
# [7] = tested on: green foxtail (Setaria viridis); test: Test C pre-/postemergence plant response
# Method in brief: as §2
# [8] = tested on: pigweed (Amaranthus retroflexus); test: Test C pre-/postemergence plant response
# Method in brief: as §2
# [9] = tested on: spring barley (Hordeum vulgare); test: Test C pre-/postemergence plant response
# Method in brief: as §2
# [10] = tested on: spring wheat (Triticum aestivum); test: Test C pre-/postemergence plant response
# Method in brief: as §2
# [11] = tested on: wild mustard (Sinapis arvensis); test: Test C pre-/postemergence plant response
# Method in brief: as §2
# [12] = tested on: winter barley (Hordeum vulgare); test: Test C pre-/postemergence plant response
# Method in brief: as §2
# [13] = tested on: winter wheat (Triticum aestivum); test: Test C pre-/postemergence plant response
# Method in brief: as §2
# [14] = 16 g ai/ha, scale 0 to 100 (0 no effect, 100 complete control)
# [15] = 31 g ai/ha, 0 to 100 scale, 0 no effect, 100 complete control
# [16] = Postemergence, 16 g ai/ha, scale 0 to 100
# [17] = Postemergence, 31 g ai/ha, scale 0 to 100, 0 no effect, 100 complete control
# [18] = Postemergence, 62 g ai/ha, scale 0 to 100, 0 no effect, 100 complete control
# [19] = Preemergence, 16 g ai/ha, scale 0 to 100 (0 no effect, 100 complete control)
# [20] = Preemergence, 31 g ai/ha, 0 to 100 scale, 0 no effect, 100 complete control
# [21] = Preemergence, 62 g ai/ha, scale 0 to 100
# [22] = Preemergence, 8 g ai/ha, scale 0 to 100 (0 no effect, 100 complete control)
# [23] = Preemergence, 31 g ai/ha, scale 0 to 100 (0 no effect, 100 complete control)
# [24] = Preemergence, 62 g ai/ha, scale 0 to 100, 0 no effect, 100 complete control
# [25] = Postemergence, 8 g ai/ha, scale 0 to 100, 0 no effect, 100 complete control
# [26] = Postemergence, 16 g ai/ha, scale 0 to 100, 0 no effect, 100 complete control
compound,measurement,setting,value
Cc1cc(-c2ccc(Cl)cc2)nn1-c1c(OS(=O)(=O)c2ccccc2)cnn(C)c1=O [Compound 35],"Plant response rating, Russian Thistle",[1]; [14],0
same,"Plant response rating, Russian Thistle",[1]; [15],0
same,"Plant response rating, Russian Thistle","[1]; 62 g ai/ha, scale 0 to 100",0
same,Russian Thistle plant response rating,[1]; scale 0 to 100,0
same,Cocklebur plant response rating,"[2]; postemergence, 0-100 scale",0
same,"Plant response rating, Cocklebur",[2]; [16],0
same,"Plant response rating, Cocklebur",[2]; [17],0
same,"Plant response rating, Cocklebur",[2]; [18],0
same,"Plant response rating, Cocklebur",[2]; [19],0
same,"Plant response rating, Cocklebur",[2]; [20],0
same,"Plant response rating, Cocklebur",[2]; [21],0
same,Cocklebur plant response rating,"[2]; Preemergence, scale 0 to 100",0
same,"Crabgrass, Large plant response rating","[3]; postemergence, 0-100 scale",60
same,"Plant response rating, Crabgrass, Large",[3]; [16],70
same,"Plant response rating, Crabgrass, Large",[3]; [17],80
same,"Plant response rating, Crabgrass, Large",[3]; [18],100
same,"Plant response rating, Crabgrass, Large",[3]; [19],100
same,"Plant response rating, Crabgrass, Large",[3]; [20],100
same,"Plant response rating, Crabgrass, Large",[3]; [21],100
same,"Crabgrass, Large plant response rating","[3]; Preemergence, scale 0 to 100",90
same,"Plant response rating, Ryegrass, Italian",[4]; [22],0
same,"Plant response rating, Ryegrass, Italian",[4]; [19],35
same,"Plant response rating, Ryegrass, Italian",[4]; [23],98
same,"Plant response rating, Ryegrass, Italian",[4]; [24],100
same,"Plant response rating, Blackgrass",[5]; [22],0
same,"Plant response rating, Blackgrass",[5]; [19],30
same,"Plant response rating, Blackgrass",[5]; [23],75
same,"Plant response rating, Blackgrass",[5]; [24],75
same,"Plant response rating, Bromegrass, Downy",[6]; [22],0
same,"Plant response rating, Bromegrass, Downy",[6]; [19],0
same,"Plant response rating, Bromegrass, Downy",[6]; [23],50
same,"Plant response rating, Bromegrass, Downy",[6]; [24],60
same,"Plant response rating, Foxtail, Green",[7]; [22],15
same,"Plant response rating, Foxtail, Green",[7]; [23],40
same,"Plant response rating, Foxtail, Green",[7]; [24],100
same,"Plant response rating, Pigweed",[8]; [22],0
same,"Plant response rating, Pigweed",[8]; [23],0
same,"Plant response rating, Pigweed",[8]; [24],0
same,"Plant response rating, Barley, Spring",[9]; [22],0
same,"Plant response rating, Barley, Spring",[9]; [19],0
same,"Plant response rating, Barley, Spring",[9]; [23],20
same,"Plant response rating, Barley, Spring",[9]; [24],65
same,"Plant response rating, Wheat, Spring",[10]; [22],0
same,"Plant response rating, Wheat, Spring",[10]; [19],20
same,"Plant response rating, Wheat, Spring",[10]; [23],50
same,"Plant response rating, Wheat, Spring",[10]; [24],65
same,"Plant response rating, Mustard, Wild",[11]; [23],0
same,"Plant response rating, Mustard, Wild",[11]; [24],0
same,"Plant response rating, Barley, Winter",[12]; [22],0
same,"Plant response rating, Barley, Winter",[12]; [23],0
same,"Plant response rating, Barley, Winter",[12]; [24],50
same,"Plant response rating, Wheat, Winter",[13]; [22],0
same,"Plant response rating, Wheat, Winter",[13]; [19],10
same,"Plant response rating, Wheat, Winter",[13]; [23],25
same,"Plant response rating, Wheat, Winter",[13]; [24],70
Cc1cc(-c2ccc(Cl)cc2)nn1-c1c(OC(=O)CC(C)C)cnn(C)c1=O [Compound 37],"Plant response rating, Russian Thistle",[1]; [14],0
same,"Plant response rating, Russian Thistle",[1]; [15],0
same,"Plant response rating, Russian Thistle","[1]; 62 g ai/ha, scale 0 to 100",90
same,Russian Thistle plant response rating,[1]; scale 0 to 100,0
same,Cocklebur plant response rating,"[2]; postemergence, 0-100 scale",0
same,"Plant response rating, Cocklebur",[2]; [16],0
same,"Plant response rating, Cocklebur",[2]; [17],0
same,"Plant response rating, Cocklebur",[2]; [18],0
same,"Plant response rating, Cocklebur",[2]; [19],0
same,"Plant response rating, Cocklebur",[2]; [20],0
same,"Plant response rating, Cocklebur",[2]; [21],0
same,Cocklebur plant response rating,"[2]; Preemergence, scale 0 to 100",0
same,"Crabgrass, Large plant response rating","[3]; postemergence, 0-100 scale",70
same,"Plant response rating, Crabgrass, Large",[3]; [16],70
same,"Plant response rating, Crabgrass, Large",[3]; [17],85
same,"Plant response rating, Crabgrass, Large",[3]; [18],100
same,"Plant response rating, Crabgrass, Large",[3]; [19],98
same,"Plant response rating, Crabgrass, Large",[3]; [20],100
same,"Plant response rating, Crabgrass, Large",[3]; [21],100
same,"Crabgrass, Large plant response rating","[3]; Preemergence, scale 0 to 100",70
same,"Plant response rating, Ryegrass, Italian",[4]; [25],75
same,"Plant response rating, Ryegrass, Italian",[4]; [26],95
same,"Plant response rating, Ryegrass, Italian",[4]; [17],100
same,"Plant response rating, Ryegrass, Italian",[4]; [18],100
same,"Plant response rating, Ryegrass, Italian",[4]; [22],0
same,"Plant response rating, Ryegrass, Italian",[4]; [19],80
same,"Plant response rating, Ryegrass, Italian",[4]; [23],98
same,"Plant response rating, Ryegrass, Italian",[4]; [24],100
same,"Plant response rating, Blackgrass",[5]; [25],65
same,"Plant response rating, Blackgrass",[5]; [26],90
same,"Plant response rating, Blackgrass",[5]; [17],100
same,"Plant response rating, Blackgrass",[5]; [18],100
same,"Plant response rating, Blackgrass",[5]; [22],35
same,"Plant response rating, Blackgrass",[5]; [19],75
same,"Plant response rating, Blackgrass",[5]; [23],90
same,"Plant response rating, Blackgrass",[5]; [24],98
same,"Plant response rating, Bromegrass, Downy",[6]; [25],20
same,"Plant response rating, Bromegrass, Downy",[6]; [26],30
same,"Plant response rating, Bromegrass, Downy",[6]; [17],50
same,"Plant response rating, Bromegrass, Downy",[6]; [18],70
same,"Plant response rating, Bromegrass, Downy",[6]; [22],0
same,"Plant response rating, Bromegrass, Downy",[6]; [19],0
same,"Plant response rating, Bromegrass, Downy",[6]; [23],60
same,"Plant response rating, Bromegrass, Downy",[6]; [24],85
same,"Plant response rating, Foxtail, Green",[7]; [25],90
same,"Plant response rating, Foxtail, Green",[7]; [26],100
same,"Plant response rating, Foxtail, Green",[7]; [17],100
same,"Plant response rating, Foxtail, Green",[7]; [18],100
same,"Plant response rating, Foxtail, Green",[7]; [22],75
same,"Plant response rating, Foxtail, Green",[7]; [19],90
same,"Plant response rating, Foxtail, Green",[7]; [23],100
same,"Plant response rating, Foxtail, Green",[7]; [24],100
same,"Plant response rating, Pigweed",[8]; [25],0
same,"Plant response rating, Pigweed",[8]; [26],0
same,"Plant response rating, Pigweed",[8]; [17],0
same,"Plant response rating, Pigweed",[8]; [18],0
same,"Plant response rating, Pigweed",[8]; [22],0
same,"Plant response rating, Pigweed",[8]; [19],0
same,"Plant response rating, Pigweed",[8]; [23],0
same,"Plant response rating, Pigweed",[8]; [24],0
same,"Plant response rating, Barley, Spring",[9]; [25],0
same,"Plant response rating, Barley, Spring",[9]; [26],20
same,"Plant response rating, Barley, Spring",[9]; [17],50
same,"Plant response rating, Barley, Spring",[9]; [18],100
same,"Plant response rating, Barley, Spring",[9]; [22],0
same,"Plant response rating, Barley, Spring",[9]; [19],0
same,"Plant response rating, Barley, Spring",[9]; [23],15
same,"Plant response rating, Barley, Spring",[9]; [24],40
same,"Plant response rating, Wheat, Spring",[10]; [25],15
same,"Plant response rating, Wheat, Spring",[10]; [26],50
same,"Plant response rating, Wheat, Spring",[10]; [17],75
same,"Plant response rating, Wheat, Spring",[10]; [18],95
same,"Plant response rating, Wheat, Spring",[10]; [22],0
same,"Plant response rating, Wheat, Spring",[10]; [19],0
same,"Plant response rating, Wheat, Spring",[10]; [23],90
same,"Plant response rating, Wheat, Spring",[10]; [24],98
same,"Plant response rating, Mustard, Wild",[11]; [25],0
same,"Plant response rating, Mustard, Wild",[11]; [26],0
same,"Plant response rating, Mustard, Wild",[11]; [17],0
same,"Plant response rating, Mustard, Wild",[11]; [18],0
same,"Plant response rating, Mustard, Wild",[11]; [22],0
same,"Plant response rating, Mustard, Wild",[11]; [19],0
same,"Plant response rating, Mustard, Wild",[11]; [23],0
same,"Plant response rating, Mustard, Wild",[11]; [24],0
same,"Plant response rating, Barley, Winter",[12]; [25],10
same,"Plant response rating, Barley, Winter",[12]; [26],10
same,"Plant response rating, Barley, Winter",[12]; [17],25
same,"Plant response rating, Barley, Winter",[12]; [18],95
same,"Plant response rating, Barley, Winter",[12]; [22],0
same,"Plant response rating, Barley, Winter",[12]; [19],0
same,"Plant response rating, Barley, Winter",[12]; [23],20
same,"Plant response rating, Barley, Winter",[12]; [24],40
same,"Plant response rating, Wheat, Winter",[13]; [25],0
same,"Plant response rating, Wheat, Winter",[13]; [26],30
same,"Plant response rating, Wheat, Winter",[13]; [17],60
same,"Plant response rating, Wheat, Winter",[13]; [18],90
same,"Plant response rating, Wheat, Winter",[13]; [22],0
same,"Plant response rating, Wheat, Winter",[13]; [19],15
same,"Plant response rating, Wheat, Winter",[13]; [23],25
same,"Plant response rating, Wheat, Winter",[13]; [24],90
